Source: patent US20250304545A1, “WATER-SOLUBLE HETEROCYCLYL POLYMETHINE CHROMOPHORES” (The Regents of the University of California, priority 2022, published 2025)
Values belong to the molecule of their own block, whether it stands above or below them.

Assays:
[1] = Photophysical properties of exemplary compounds in DCM solution; assay type: physicochemical; conditions: for λmax (first value of the cell): first of two wavelengths; for λmax (second value of the cell): second of two wavelengths
[2] = reference value; cited from earlier work
[3] = Systemic vasculature SWIR imaging with SulfoChrom7, compared with ICG; assay type: in vivo, mice; conditions: for distribution within 30 min: co-injection of SulfoChrom7 and ICG, 10 nmol each i.v.
Experimental: (§1) Animal experiments were conducted in conformity with guidelines from the University of California, Los Angeles with protocols approved by the Animal Research Committee (protocol number ARC-2018-047). Non-invasive whole mouse imaging was performed on athymic nude female mice (5-15 weeks old), purchased from Charles River Laboratories. Mice were anesthetized with inhaled 2-4% isoflurane. Tail vein injections were performed with a catheter assembled from a 29-gauge needle connected through plastic tubing to a syringe prefilled with isotonic saline solution. The bevel of the needle was then inserted into the tail vein and secured using tissue adhesive. The plastic tubing was then connected to a syringe (30-gauge needle) prefilled with the compound of interest. All solutions were filtered through a 0.22 μm syringe filter prior to i.v. injection.
(§2) Imaging instrument was installed according to published procedure, using an Allied Vision Goldeye G-032 Cool TEC2 camera with illumination from LU0975DLU350-S30AN03 (35 W, 975 nm laser) and LU0785D250-U70AN (25 W, 785 nm laser) Lumics laser units to record images at 14-bit depth. Illumination was adjusted to 100 mW/cm^2 for 975 nm and 50 mW/cm^2 for 785 mm. Excitation was provided at 975 nm for Sulfo-, Ammon-, Zwit- and PhosphoChrom7, and at 785 nm for ICG. Fluorescence images were recorded with an 1100 nm long-pass filter unless otherwise noted. Dual-channel imaging (SulfoChrom7/ICG, or fluorescent imaging/bright field imaging) was performed with pulsed excitation that matches the detection window of the camera, or persistent ambient fluorescent lighting for bright field images to be subtracted as background in the fluorescence channel.
Images were processed using the Fiji distribution of ImageJ. All images were background subtracted to correct for non-linearities in the detector and/or excitation. […] Videos were saved as raw avi and cropped, frame-rate adjusted and compressed with FFmpeg. For dual-channel imaging, emission of the SulfoChrom7 and AmmonChrom7 in 785 nm channel was estimated to be 9.0% intensity of their 975 nm image as derived from the capillary experiment, and subtracted from the 785 nm channel.

[4] = in vivo; cited from earlier work
SK-OV-3 tumors = test: Fluorescence tracking of growth of SK-OV-3 tumor xenografts; assay type: in vivo, mice; conditions: 39 days after xenograft, 4 h after i.v. OTL-38
Experimental: A375 or SK-OV-3 cells were grown to confluency and incubated with full media supplemented with 50 μM of AmmonChrom7 for 12 h. Cells were then incubated with full media for 6 h, followed by digestion with trypsin-EDTA. The cell pellet was further washed with PBS (×3). For A375 cells, stained or unstained cells were suspended in 1:1 PBS and Matrigel; 100 μL of cell suspension (3.3 million cells) were injected to each site. Tumor 2D-projected sizes A were monitored by caliper measurement of long diameter a and short diameter b of the tumors and estimated by the following equation:
For SK-OV-3 cells, cells were suspended in 1:1 PBS and Matrigel; 100 μL of cell suspension (2.5 million cells) was injected to each site. […]
as §2, with “Illumination was adjusted to 100 mW/cm^2 for 975 nm and 50 mW/cm^2 for 785 mm. Excitation was provided at 975 nm for Sulfo-, Ammon-, Zwit- and PhosphoChrom7, and at 785 nm for ICG.” left out

[5] = Aggregation / monomeric dispersion by absorption spectra in water, MeOH/H2O and serum; assay type: physicochemical; conditions: for aggregation state: in water
Source text: (§3) Absorption spectra were collected on a JASCO V-770 UV-visible/NIR spectrophotometer after blanking with the appropriate solvent. Photoluminescence spectra were obtained on a Horiba Instruments PTI QuantaMaster Series fluorometer. Fetal bovine serum (FBS) or bovine serum were purchased from Gibco. Quartz cuvettes (10 mm×10 mm) were used for absorption and photoluminescence measurements unless otherwise noted. All spectra were obtained at ambient temperature. Fluorescence quantum yield was measured with 830 nm excitation using Flav7 as a reference (ΦF=0.61%).

HEK293 cells [6] = test: MTT toxicity assay; assay type: cell-based; conditions: low concentrations
Experimental: HEK293 cells were split into three cultures as replicates. For each replicate, HEK293 cells were passed onto flat-bottomed 96-well plate to 40-50% confluency and left 6 h for adhesion. Different concentrations of compounds were added to the medium (1:40 dilution from aqueous stock solution) in quadruplicate and incubated for 18 h. After incubation, cells were treated with 100 μL of full media containing 0.5 mg/mL MTT for 2 h, followed by addition of 100 μL of aqueous solution containing 10% SDS and 1:1000 HCl. After 3-4 h incubation, cell viability was determined by measuring the absorbance at 490 nm using a plate reader.

[7] = Hydroxyapatite binding assay; conditions: 50 μM dye in bovine serum, sequential washes
Experimental: Hydroxyapatite powder was purchased from Acros Organics. To a suspension of 10 mg of hydroxyapatite in 100 μL of bovine serum was added 50 μM PhosphoChrom7 and the mixture was placed on a revolver for 30 min for initial binding, followed by centrifugation to remove supernatant. For washing, the pellet was resuspended in 100 μL of bovine serum by vortexing and placed on a revolver for 30 min followed by centrifugation to remove supernatant. The pellet was finally resuspended in 100 μL of bovine serum for imaging under the SWIR camera. For quantification, each centrifuge tube containing the suspension was recorded at the center of the illumination/viewing field to calculate mean fluorescence intensity at the bottom area of the tube.

[8] = Bone imaging in mice with PhosphoChrom7; assay type: in vivo
Experimental: as §1, §2
Images were processed using the Fiji distribution of ImageJ. All images were background subtracted to correct for non-linearities in the detector and/or excitation. […] Videos were saved as raw avi and cropped, frame-rate adjusted and compressed with FFmpeg. […]

[9] = Photophysical characterization of Chrom7 dyes (absorption, emission, quantum yield); assay type: physicochemical
Source text: as §3

Stability assay in FBS = assay type: in vitro ADME; conditions: over 2 days at 37° C. in FBS, 1 μM dye
Experimental: Dyes were diluted to 1 μM in 1 mL of FBS containing 0.02% w/v NaN3 and placed in disposable cuvettes. The cuvettes were sealed with parafilm and placed in 37° C. incubator until given time points. Absorption spectra were taken using the maximum absorption to represent the dye concentration. Each condition was performed in triplicate.

HEK293 cells [10] = test: Uptake and retention of dyes in cells (absorbance of cell lysates); assay type: cell-based; conditions: 50 μM dye
Experimental: HEK293, SK-OV-3 or A375 cells were split into three cultures as replicates. For each replicate, cells were passed onto 12-well or 24-well plates and grown until ca. 80% confluency. Each well was incubated with 50 μM of AmmonChrom7 for 6 h, and the cells were washed with PBS and incubated in MEM medium supplemented with 1% FBS. At given time points, the cell media were removed and cells were lysed with lysis buffer (150 μL, containing 1% Triton X-100, 0.1% w/v SDS and 0.1% w/v sodium deoxycholate) and diluted with bovine serum (300 μL). The cell lysate was collected and frozen at −20° C. until analysis. To quantify dye content, maximum absorption was used to represent the dye concentration. Scattering was estimated and subtracted with absorption at 1050-1100 nm, using the following equation for fitting: […]

[11] = Biodistribution of water soluble SWIR fluorophores after i.v. injection; assay type: in vivo, mice; conditions: 20 nmol into tail vein
Experimental: as §1, with “The plastic tubing was then connected to a syringe (30-gauge needle) prefilled with the compound of interest. All solutions were filtered through a 0.22 μm syringe filter prior to i.v. injection.” left out
as §2, with “Illumination was adjusted to 100 mW/cm^2 for 975 nm and 50 mW/cm^2 for 785 mm. Excitation was provided at 975 nm for Sulfo-, Ammon-, Zwit- and PhosphoChrom7, and at 785 nm for ICG.” left out, “channel. […]” for “channel.”

[12] = Brightness comparison by SWIR imaging of dyes in FBS in capillaries; assay type: physicochemical
Experimental: as §2

ϕF [1]: 0.11 ± 0.01%
λmax (first value of the cell) [1]: 1079 nm
λmax (second value of the cell) [1]: 1107 nm
Compound: Cc1cc(C)cc(C2=C(/C=C/C3=CC(c4ccccc4)=[SH]c4cc(N(C)C)ccc43)CCC/C2=C\C=C2/C=C(c3ccccc3)Sc3cc(N(C)C)ccc32)c1 [DiMePh SFlav7]

ϕF [1]: 0.11 ± 0.02%
λmax (first value of the cell) [1]: 1079 nm
λmax (second value of the cell) [1]: 1107 nm
Compound: CN(C)c1ccc2c(c1)SC(c1ccccc1)=C/C2=C\C=C1/CCCC(/C=C/c2cc(-c3ccccc3)[s+]c3cc(N(C)C)ccc23)=C1c1cc(C(C)(C)C)cc(C(C)(C)C)c1 [DitBuPh SFlav7]

aggregation peak ([5]; in FBS): 760 nm
binding towards hydroxyapatite [7]: strong binding affinity
organ distribution on dissection ([8]; 54 h after i.v. injection): the liver is the major target of the dye
clearance ([8]; compared to previous hydrophilic dyes): slightly faster clearance
Compound: Cc1ccccc1C1=C(C=Cc2cc(C(C)(C)C)[o+]c3cc(N(Cc4cn(CCCP(=O)(O)O)nn4)Cc4cn(CCCP(=O)(O)O)nn4)ccc23)CCCC1=CC=C1C=C(C(C)(C)C)Oc2cc(N(Cc3cn(CCCP(=O)(O)O)nn3)Cc3cn(CCCP(=O)(O)O)nn3)ccc21 [PhosphoChrom7]
solubility ([5]; in FBS): lower than the Sulfo-, Ammon-, or ZwitChrom7
toxicity (HEK293 cells [6]): mild
time at which bone structures begin to feature ([8]; after i.v. injection): 8 h

εmax ([9]; in MeOH): 14 ± 1 10^4 M^−1cm^−1
λmax ([9]; in MeOH): 928 nm
Compound: C#CCN(CC#C)c1ccc2c(c1)OC(C(C)(C)C)=C/C2=C\C=C1/CCCC(/C=C/c2cc(C(C)(C)C)[o+]c3cc(N(CC#C)CC#C)ccc23)=C1c1ccccc1C [Propargyl-Chrom7]

εmax ([9]; in FBS): 9.5 10^4 M^−1cm^−1
λmax ([9]; in FBS): 963 nm
φF ([9]; in FBS): 0.0056 ± 0.0003
εmax ([9]; in MeOH): 16.5 ± 0.2 10^4 M^−1cm^−1
λmax ([9]; in MeOH): 938 nm
φF ([9]; in MeOH): 0.0106 ± 0.0002
aggregation state [5]: discernible monomer absorption
fraction of dye left (Stability assay in FBS): around ½
emission in 785 nm channel as intensity of the 975 nm image ([12]; derived from the capillary experiment): 9.0%
SWIR brightness compared with ICG / among the dyes ([12]; in FBS, 975 nm excitation (ICG 785 nm)): brightest of the fluorophores
Compound: Cc1ccccc1C1=C(C=Cc2cc(C(C)(C)C)[o+]c3cc(N(Cc4cn(CCCS(=O)(=O)[O-])nn4)Cc4cn(CCCS(=O)(=O)[O-])nn4)ccc23)CCCC1=CC=C1C=C(C(C)(C)C)Oc2cc(N(Cc3cn(CCCS(=O)(=O)[O-])nn3)Cc3cn(CCCS(=O)(=O)[O-])nn3)ccc21.[Na+].[Na+].[Na+] [SulfoChrom7]
cellular uptake (absorbance of cell lysates) (HEK293 cells [10]): minimal
distribution after 3 h [11]: diffuse signal through the mouse body, but still with substantial liver accumulation
brightness ratio over ICG in veins, maximum over time ([3]; co-injection 10 nmol each, 1300 nm LP filter): 7-8 fold
distribution within 30 min [3]: still reflected the superficial vasculature map while also displaying liver accumulation
amount of dye that enables video-rate imaging of liver and vasculature ([3]; tail vein, 33 fps, 1100 nm LP filter): 0.05 nmol

The next lines start with the molecule.

Compound: CN(C)c1ccc2c(c1)OC(c1ccccc1)=C/C2=C\C=C1/CCCC(/C=C/c2cc(-c3ccccc3)[o+]c3cc(N(C)C)ccc23)=C1Cl [Flav7]
ΦF of the reference for fluorescence quantum yield [2]: 0.61%

Compound: CC1(C)C(/C=C/C=C/C=C/C=C2\N(CCCCS(=O)(=O)O)c3ccc4ccccc4c3C2(C)C)=[N+](CCCCS(=O)(=O)[O-])c2ccc3ccccc3c21 [ICG, indocyanine green, reference compound]
distribution within 30 min [3]: most ICG accumulated in the liver with secretion into the intestine, leaving negligible signal in the mouse body
time of hepatobiliary clearance [4]: ≤ 6 h

Compound: CC1(C)C(/C=C/C2=C(Oc3ccc(C[C@H](NC(=O)c4ccc(NCc5cnc6nc(N)[nH]c(=O)c6n5)cc4)C(=O)[O-])cc3)C(=C/C=C3\N(CCCCS(=O)(=O)[O-])c4ccc(S(=O)(=O)[O-])cc4C3(C)C)/CCC2)=[N+](CCCCS(=O)(=O)[O-])c2ccc(S(=O)(=O)[O-])cc21.[H+].[H+].[H+].[H+] [OTL-38]
specificity of tumor staining ex vivo (SK-OV-3 tumors): much non-specific accumulation

Compound: Cc1ccccc1C1=C(C=Cc2cc(C(C)(C)C)[o+]c3cc(N(Cc4cn(CCC[N+](C)(C)CCCS(=O)(=O)[O-])nn4)Cc4cn(CCC[N+](C)(C)CCCS(=O)(=O)[O-])nn4)ccc23)CCCC1=CC=C1C=C(C(C)(C)C)Oc2cc(N(Cc3cn(CCC[N+](C)(C)CCCS(=O)(=O)[O-])nn3)Cc3cn(CCC[N+](C)(C)CCCS(=O)(=O)[O-])nn3)ccc21.[Cl-] [ZwitChrom7]
quantum yield ([9]; in FBS): 0.32%
εmax ([9]; in FBS): 11.5 10^4 M^−1cm^−1
λmax ([9]; in FBS): 960 nm
φF ([9]; in FBS): 0.0032 ± 0.0003
εmax ([9]; in MeOH): 16.4 ± 0.4 10^4 M^−1cm^−1
λmax ([9]; in MeOH): 940 nm
φF ([9]; in MeOH): 0.0101 ± 0.0004
aggregation state [5]: primarily aggregated
fraction of dye left (Stability assay in FBS): 1/10
cellular uptake (absorbance of cell lysates) (HEK293 cells [10]): minimal
distribution after 3 h [11]: diffuse signal through the mouse body, but still with substantial liver accumulation
